Our source for the inhibition, Activity and IC50 values is ChEMBL document CHEMBL5537157, “Selective Antitumor Effect and Lower Toxicity of Mitochondrion-Targeting Derivatization of Triptolide” (J Med Chem, 2024).

Active and inactive are the calls of the source. The calls are words filed in the database; no cut-off is given here.

Series [1] concerns NCI-H1975. Put plainly: Inhibition of cell proliferation in human NCI-H1975 cells xenografted in zebrafish at 1 uM measured after 48 hrs by confocal microscopy. Format: functional, cell-based. On the technique in general: In xenograft studies the graft and the host belong to different species.
Series [2] has as its system NCI-H1975. Put plainly: Cytotoxicity against human NCI-H1975 cells assessed as cell growth inhibition at 123 nM by MTT assay. It counts as functional, cell-based. Particulars: time 24-70 hrs, TDE = time-dependent effect. In general terms: Tetrazolium assays rely on reduction of a dye to a coloured formazan, in cell work by metabolically active cells.
The subject of series [3] is NCI-H1975. The series is described as follows: Cytotoxicity against human NCI-H1975 cells assessed as cell growth inhibition incubated for 48 hrs by MTT assay. Format: functional, cell-based.
In series [4] the test system is HepG2. Put plainly: Cytotoxicity against human HepG2 cells assessed as cell growth inhibition incubated for 48 hrs by MTT assay. Particulars: dose 4.5-10 nM. It counts as functional, cell-based.
Series [5] has as its system MCF7. The series is described as follows: Cytotoxicity against human MCF7 cells assessed as cell growth inhibition incubated for 48 hrs by MTT assay. It counts as functional, cell-based.
The test system of series [6] is NCI-H460. The series is described as follows: Cytotoxicity against human NCI-H460 cells assessed as cell growth inhibition incubated for 48 hrs by MTT assay. Format: functional, cell-based.
Series [7] is filed under the species Danio rerio. Put plainly: Induction of ROS production in zebrafish at 1 to 2 uM measured after 48 hrs by fluorescence microscopy. It counts as functional, organism-based. Particulars: dose 1-2 µM.
Series [8] is described as follows: Renal toxicity in zebrafish assessed as decrease in nephrin expression at 2 uM treated for 48 hrs by RT-qPCR analysis. Details: species or system Danio rerio. Particulars: in vivo. Background: Quantitative PCR measures a nucleic acid by following its amplification.
In series [9] the test system is A549. The series is described as follows: Cytotoxicity against human A549 cells assessed as cell growth inhibition incubated for 48 hrs by MTT assay. It counts as functional, cell-based.
The nature of series [10]: Developmental toxicity in zebrafish AB zygotes assessed as lethal effect at 2 to 4 uM treated at 6 hrs post-fertilization measured at 72 hrs post-fertilization. Further details: species or system Danio rerio. Particulars: in vivo, 66 h, dose 2-4 µM.
Series [11] is described as follows: Renal toxicity in zebrafish assessed as increase in Kim1 expression at 0.5 to 2 uM treated for 48 hrs by RT-qPCR analysis. Further details: species or system Danio rerio. Particulars: in vivo, dose 0.5-2 µM.
Series [12] is described as follows: Toxicity in zebrafish xenografted with human NCI-H1975 cells assessed as body deformity at 1 uM. Details: species or system Danio rerio.
The subject of series [13] is NCI-H1975. Put plainly: Induction of apoptosis in human NCI-H1975 cells at 50 to 1600 nM incubated for 24 hrs by Annexin V-FITC/PI staining based flow cytometry. It counts as functional, cell-based. Particulars: dose 50-1600 nM.
A short description of series [14]: Renal toxicity in zebrafish assessed as yolk sac absorption at 2 uM treated at 3 hrs post-fertilization measured at 48 hrs post-compound treatment by FITC staining based microscopy. Details: species or system Danio rerio. Particulars: in vivo.
Series [15] can be described thus: Toxicity in zebrafish xenografted with human NCI-H1975 cells assessed as animal death at 2 uM. Details: species or system Danio rerio.
A short description of series [16]: Developmental toxicity in zebrafish AB zygotes assessed as embryo malformation at 2 to 4 uM treated at 6 hrs post-fertilization measured at 24 to 72 hrs post-fertilization. Details: species or system Danio rerio. Particulars: in vivo, dose lower 2 µM, time lower 18 hrs, dose upper 4 µM, time upper 66 hrs.
Series [17] in a line: Developmental toxicity in zebrafish AB zygotes assessed as decrease in hatching rate at 2 to 4 uM treated at 6 hrs post-fertilization measured at 24 to 72 hrs post-fertilization. Details: species or system Danio rerio. Particulars: in vivo, dose lower 2 µM, time lower 18 hrs, dose upper 4 µM, time upper 66 hrs.
The subject of series [18] is NCI-H1975. Put plainly: Induction of apoptosis in human NCI-H1975 cells assessed as nuclear shrinkage at 400 nM incubated for 24 hrs by DAPI staining based analysis. It counts as functional, cell-based.
For series [19], the system named is NCI-H1975. Put plainly: Inhibition of cell viability in human NCI-H1975 cells assessed as effect on cell index at 30 nM by real-time cell analysis. Format: functional, cell-based.
Series [20] can be described thus: Toxicity in zebrafish embryo assessed as liver development at 1 uM with replacement of new growth solution daily by fluorescence microscopy (reference value: 100.00 +/- 8.64 %). Format: tissue-based, Danio rerio. Particulars: in vivo.
A short description of series [21]: Toxicity in zebrafish embryo assessed as degree of periocular edema at 4 uM pretreated with compound followed by replacement of growth liquid by microscopy (reference value: 0.00 %). Details: species or system Danio rerio. Particulars: in vivo, 24 h.
Series [22] is described as follows: Developmental toxicity in zebrafish AB zygotes assessed as decrease in hatching rate at 0.25 to 1 uM treated at 6 hrs post-fertilization measured at 24 to 72 hrs post-fertilization. Details: species or system Danio rerio. Particulars: in vivo, dose lower 0.25 µM, time lower 18 hrs, dose upper 1 µM, time upper 66 hrs.
The test system of series [23] is NCI-H1975. The series is described as follows: Induction of early apoptosis in human NCI-H1975 cells at 50 to 400 nM incubated for 24 hrs by Annexin V-FITC/PI staining based flow cytometry. It counts as functional, cell-based. Particulars: dose 50-400 nM.
The subject of series [24] is NCI-H460. Put plainly: Cytotoxicity against human NCI-H460 cells assessed as inhibition of cell viability incubated for 48 hrs by MTT assay. It counts as functional, cell-based. Particulars: NCI-H460, 48 h.
Series [25] concerns NCI-H1975. The series is described as follows: Inhibition of cell proliferation in human NCI-H1975 cells xenografted in zebrafish at 1 to 2 uM measured after 48 hrs by confocal microscopy. Format: functional, cell-based. Particulars: dose 1-2 µM.
Series [26] is described as follows: Developmental toxicity in zebrafish AB zygotes assessed as decrease in body length treated at 6 hrs post-fertilization measured at 24 to 72 hrs post-fertilization. Further details: species or system Danio rerio. Particulars: in vivo, dose lower 0.25 µM, time lower 18 hrs, dose upper 4 µM, time upper 66 hrs.
The subject of series [27] is NCI-H1975. Put plainly: Inhibition of mitochondrial membrane potential in human NCI-H1975 cells at 200 nM incubated for 24 hrs by JC-1 staining based flow cytometry. It counts as functional, cell-based.
The subject of series [28] is BEAS-2B. The series is described as follows: Induction of ROS generation in human BEAS-2B cells at 0.4 uM incubated for 24 hrs by DCFH-DA probe based analysis. Format: toxicity, cell-based.
Series [29] in a line: Renal toxicity in zebrafish assessed as FITC dye residue at 2 uM treated for 24 hrs followed by dye treatment measured after 6 hrs by fluorescence microscopy. Particulars: in vivo, 30 h. Further details: species or system Danio rerio.
The nature of series [30]: Toxicity in zebrafish embryo assessed as liver development at 2 uM with replacement of new growth solution daily by fluorescence microscopy (reference value: 100.00 +/- 8.64 %). Format: tissue-based, Danio rerio. Particulars: in vivo.
The nature of series [31]: Renal toxicity in zebrafish assessed as increase in Kim1 expression at 2 uM treated for 48 hrs by RT-qPCR analysis. Details: species or system Danio rerio. Particulars: in vivo.
A short description of series [32]: Cytotoxicity against human BEAS-2B cells assessed as inhibition of cell viability incubated for 48 hrs by MTT assay. Format: toxicity, cell-based.
Series [33] concerns BEAS-2B. Put plainly: Induction of apoptosis in human BEAS-2B cells assessed as morphological change in nucleus at 50 to 400 nM incubated for 24 hrs by DAPI staining based analysis. It counts as toxicity, cell-based. Particulars: 0.4 µM, dose 50-400 nM.
Series [34] in a line: Renal toxicity in fluorescent transgenic zebrafish at 0.5 to 1 uM treated for 48 hrs by fluorescence microscopy. Details: species or system Danio rerio. Particulars: in vivo, dose 0.5-1 µM.
Series [35] in a line: Toxicity in zebrafish embryo assessed as liver function at 2 uM with replacement of new growth solution daily by fluorescence microscopy (reference value: 100 +/- 8.89 %). It counts as tissue-based, Danio rerio. Particulars: in vivo.
Series [36] is described as follows: Teratogenic toxicity in zebrafish AB zygotes at 2 to 4 uM treated at 6 hrs post-fertilization measured at 24 to 72 hrs post-fertilization. Particulars: in vivo, dose lower 2 µM, time lower 18 hrs, dose upper 4 µM, time upper 66 hrs. Details: species or system Danio rerio.
A short description of series [37]: Toxicity in zebrafish embryo assessed as damage effect in liver function at 1 uM with replacement of new growth solution daily by fluorescence microscopy relative to control. Details: species or system Danio rerio. Particulars: in vivo.
The test system of series [38] is NCI-H1975. The series is described as follows: Cytotoxicity against human NCI-H1975 cells assessed as inhibition of cell viability incubated for 48 hrs by MTT assay. It counts as functional, cell-based. Particulars: NCI-H1975, 48 h.
A short description of series [39]: Toxicity in zebrafish embryo assessed as damage effect in liver development at 1 uM with replacement of new growth solution daily by fluorescence microscopy relative to control. Particulars: in vivo. Format: tissue-based, Danio rerio.

Regarding `CC(C)[C@]12O[C@H]1[C@@H]1O[C@@]13[C@@]1(C)CCC4=C(COC4=O)[C@@H]1C[C@@H]1O[C@@]13C2=O` [TRIPTONIDE], the inhibition result in series [1] and in series [4] was “Active” in each case. Further, the inhibition entry in series [2] is “Tde”; in [3], “Dose-Dependent Effect”; in series [5], “Dose-Dependent Effect”; in series [6], “Dose-Dependent Effect”; in series [9] it was “Dose-Dependent Effect”. Besides, the result in [7] and in series [13] was Active. Also, the Activity entry in [8], in series [10], in [11], in [12], in [14] and in series [15] was “Toxic” each time.

Take `CC(C)[C@]12O[C@H]1[C@@H]1O[C@]13[C@]1(O[C@H]1C[C@H]1C4=C(CC[C@@]13C)C(=O)OC4)[C@@H]2OC(=O)CCCCCCCC[n+]1ccc(/C=C/c2c[nH]c3ccccc23)cc1.[Br-]`: the Activity result in series [16] was “Toxic”; in series [17], “Toxic”; in series [20] it was 76.24%; in series [21], 100%; in series [22] it was “Non-Toxic”; in [26] it was “Dose-Dependent Effect”. Further, the Activity entry in series [28] is given as “Toxic”; in series [29], “Toxic”; in series [30], 41.79%; in series [31], “Toxic”; in series [33] it was “Non-Toxic”; in series [34], “Non-Toxic”. For the same molecule, the Activity in series [35] was 20.04%; in [36] it was “Toxic”; in series [37], 72.82%; in series [39], 23.76%. The outcome in series [18] and in series [23] was Active. Further, the inhibition entry in series [19], in series [25] and in series [27] was “Active” throughout. Moreover, the values for the IC50 in series [24] and in series [38] were 4.78 µM and 0.21 µM, respectively. Moreover, the IC50 (commonly the concentration needed to halve the response being measured) at 48 h in [32] was found to be 19.2 µM.
